One test concerns spinal alpha-2 receptors. It counts as in vivo, rat.
Test [1] deals with Sprague-Dawley rats. As to the kind of experiment: Effect on analgesia produced by a single spinal dose of morphine (tail flick and paw pressure tests). It counts as in vivo, rat.
Test [2] has as its system Sprague-Dawley rats. Briefly: Acute tolerance to spinal morphine: three successive intrathecal injections at 90 minute intervals, cumulative morphine dose-response curves 24 hours later (tail flick and paw pressure tests). The class given is in vivo, rat. Conditions: for development of acute tolerance to morphine: ultra-low dose administration, intrathecal.
The test system of the next test is mice. Conditions: cited from earlier work.
For test [3], the system named is Sprague-Dawley rats. As to the kind of experiment: Chronic tolerance to spinal morphine: daily intrathecal injection for 5 days, cumulative dose-response curves on day 6 (tail flick and paw pressure tests). It counts as in vivo, rat.
Test [4] deals with Sprague-Dawley rats. Briefly: Reversal of pre-existing morphine analgesic tolerance by ultra-low dose atipemazole (tail flick and paw pressure tests).
For another test, the system named is mouse. Conditions: in vivo; cited from earlier work.
The mark [5] stands for this setting: idazoxan 0.08 ng with morphine 15 μg intrathecal.
[6] abbreviates: idazoxan ultra-low doses (0.008, 0.016, 0.08 ng) with morphine 15 μg x 3.
The mark [7] stands for this setting: mirtazapine 2 μg with clonidine 13.3 μg intrathecal.
[8] abbreviates: mirtazapine 0.02 ng co-injection with morphine 15 μg x 3.
Where [9] appears, read: mirtazapine 0.02 ng with morphine 15 μg x 3.
Setting [10] is: single mirtazapine exposure 0.02 ng 30 minutes prior to repeated morphine.
The mark [11] stands for this setting: group receiving repeated morphine injections (15 μg x 3) vs saline-treated control.
[12] abbreviates: saline-treated control group, cumulative intrathecal dose-response curve 24 hours after treatment.
[13] abbreviates: group receiving chronic morphine alone (15 μg for 10 days).
Setting [14] is: group receiving morphine (15 μg for 10 days) with atipemazole 0.8 ng from day 6 for 5 days.

This is an account of results in US20070060501A1 (priority 2005, published 2007).

Several values for one entry are separate records, joined by “and”; a condition that tells them apart may be missing. Identical values can stand only once. Entries after “also recorded” stand apart in the source; their conditions may differ. Like-named read-outs stand apart in the source and are kept apart here.

For `Clc1cccc(Cl)c1N=C1NCCN1` [clonidine], in the test with spinal alpha-2 receptors (rat, in vivo), the “analgesic response to clonidine, paw pressure test” value is reported as “lesser effect” and the “analgesic response to clonidine, tail flick test” value is on record as “maximal analgesic response”.
Take `c1ccc2c(c1)OCC(C1=NCCN1)O2` (centres unmarked) [idazoxan]: the “effect on peak clonidine analgesia, tail flick test” value with spinal alpha-2 receptors (idazoxan 10 μg with clonidine 13.3 μg intrathecal) is “decreased significantly”. For the same molecule, in the test with Sprague-Dawley rats [1] (setting [5]), the “effect on morphine analgesia, both tail flick and paw pressure tests” value is reported as “significantly extended morphine analgesia”; the “effect on peak morphine analgesia, paw pressure test” value is “augmented peak morphine analgesia”. In the test on Sprague-Dawley rats [2] (idazoxan 0.008 ng, 0.016 ng with morphine 15 μg x 3), the “effect on the shift of the morphine dose-response curve, both tail flick and paw pressure tests” value is “prevented the rightward shift”. The “effect on the increase in morphine ED50, both tail flick and paw pressure tests” value with Sprague-Dawley rats [2] (idazoxan 0.008, 0.016 and 0.08 ng co-injection with morphine 15 μg x 3) is “prevented the increase in ED50”. Further, the “analgesic response to repeated administration alone” value in the test with Sprague-Dawley rats [2] (idazoxan alone at 0.008 and 0.016 ng, injected at 90 minute intervals) is on record as “no significant analgesic response”. Besides, the “effect on peak morphine analgesia, tail flick test” value in the test with Sprague-Dawley rats [2] (idazoxan lowest dose 0.008 ng with morphine 15 μg x 3) is “reduced the peak morphine analgesia”. In the test on Sprague-Dawley rats [2] (setting [6]), the “effect on the decline of morphine analgesia, paw pressure test” value is given as “arrested the decline of the analgesic effect” and the “effect on the decline of morphine analgesia, tail flick test” value was “less effective at arresting the decline”. For the same molecule, the “development of acute tolerance to morphine” value with Sprague-Dawley rats [2] is listed as “very effectively inhibit”.
In the case of `COCCc1ccc(OCC(O)CNC(C)C)cc1` (centres unmarked) [metoprolol], the “development of tolerance to morphine analgesia” value (shortened to “development of tolerance”) with mice is “suppress the development of tolerance”.
Regarding `CN1CCN2c3ncccc3Cc3ccccc3C2C1` (centres unmarked) [mirtazapine], the “effect on clonidine analgesia, paw pressure test” value in the test on spinal alpha-2 receptors (10 μg with clonidine 13.3 μg intrathecal (FIG. 28B)) was “almost abolished”. In addition, in the test on spinal alpha-2 receptors (setting [7]), the “effect on clonidine analgesia, paw pressure test” value was “almost abolished” and the “effect on peak clonidine analgesia, tail flick test” value was “decreased significantly”. For the same molecule, the “effect on peak morphine analgesia, tail flick test” value in the test on Sprague-Dawley rats [1] (mirtazapine 0.2 ng with morphine 15 μg intrathecal) is given as “reduced the peak morphine analgesia”. Moreover, the “effect on morphine analgesia, paw pressure test” value with Sprague-Dawley rats [1] (mirtazapine 0.02 and 0.2 ng with morphine 15 μg intrathecal) is on record as “significantly extended morphine analgesia”. The “effect on duration of morphine analgesia, tail flick test” value in the test with Sprague-Dawley rats [1] (mirtazapine 0.02 and 0.2 ng with morphine 15 μg intrathecal, particularly at 0.02 ng) is reported as “extended morphine analgesia”. Further, in the test with Sprague-Dawley rats [2] (setting [8]), the “effect on the increase in morphine ED50, paw pressure test” value was “completely prevented the increase in ED50” and the “effect on the increase in morphine ED50, tail flick test” value is given as “partially prevented the increase in ED50”. Further, in the test on Sprague-Dawley rats [2] (setting [9]), the “effect on peak morphine analgesia, tail flick test” value was “reduced the peak morphine analgesia”; the “effect on the decline of morphine analgesia, paw pressure test” value is “arrested the decline of the analgesic effect”; the “effect on the decline of morphine analgesia, tail flick test” value is recorded as “less effective at arresting the decline”; the “effect on the shift of the morphine dose-response curve, paw pressure test” value is reported as “prevented the rightward shift”. Further, the “morphine dose-response curves of morphine and morphine-mirtazapine groups, tail flick test” value in the test on Sprague-Dawley rats [2] (setting [9]) is listed as “showed an overlap at upper dose range of the opioid agonist”. Moreover, the “prevention of the right shift of the morphine dose response curve, paw pressure vs tail flick test” value in the test on Sprague-Dawley rats [2] (single mirtazapine dose 0.02 ng 30 minutes prior to morphine 15 μg x 3) was “more effective in the paw pressure test at preventing the right shift”. Further, in the test on Sprague-Dawley rats [2] (setting [10]), the “effect on the increase in morphine ED50, paw pressure test” value is listed as “completely prevented the increase in ED50” and the “effect on the increase in morphine ED50, tail flick test” value is “partially prevented the increase in ED50”. The “development of acute tolerance to morphine” value in the test with Sprague-Dawley rats [2] was “very effectively inhibit”.
`CN1CC[C@]23c4c5ccc(O)c4O[C@H]2[C@@H](O)C=C[C@H]3[C@H]1C5` [morphine]: the “time of peak analgesia after a single dose of morphine” value with Sprague-Dawley rats [1] (morphine 15 μg intrathecal, tail flick and paw pressure tests) stood at 30 min. Also, the “decline of the analgesic effect of morphine observed after the first injection, at the end of the 240 minute test period” value in the test on Sprague-Dawley rats [2] (3 successive doses of morphine 15 μg intrathecal at 90 minute intervals) is around 80%. For the same molecule, in the test on Sprague-Dawley rats [2] (setting [11]), the “increase in morphine ED50, paw pressure test” value is 4 fold and the “increase in morphine ED50, tail flick test” value is on record as around 5 fold. The “cumulative morphine dose-response curve 24 hours after repeated morphine injections” value in the test on Sprague-Dawley rats [2] (morphine 15 μg x 3 at 90 minute intervals, relative to saline treatment) was “shifted to the right; also recorded: parallel right shift”. In the test with Sprague-Dawley rats [2] (setting [12]), the “ED50 value of morphine, paw pressure test” value is ~7 µg and ~8 µg; the “ED50 value of morphine, tail flick test” value is around 5 µg. Besides, the “increase in morphine ED50 values, both tests” value in the test with Sprague-Dawley rats [3] (chronic treatment with morphine 15 μg/day for 5 days) was around 8 fold. The “ED50 values for morphine in the control group” value in the test with Sprague-Dawley rats [3] (group that had received atipemazole alone (0.8 ng/day) for 5 days, day 6, tail flick and paw pressure tests) is listed as “approximately 5 μg”. Also, the “time course of analgesic response on day 5” value in the test on Sprague-Dawley rats [3] (morphine 15 μg alone at conclusion of chronic treatment) is “drastically reduced”. Moreover, the “analgesic response to morphine on day 1” value in the test with Sprague-Dawley rats [3] (morphine 15 μg intrathecal, 30 minutes after administration) is “maximal level”. Moreover, the “effect of morphine at 60 minutes post injection, both tests” value in the test with Sprague-Dawley rats [3] (morphine 15 μg/day alone) was “very much reduced”. Further, the “cumulative morphine dose-response curve on day 6 after chronic morphine treatment” value with Sprague-Dawley rats [3] (morphine 15 μg/day for 5 days) is given as “rightward shift”. Moreover, in the test on Sprague-Dawley rats [3] (morphine 15 μg/day intrathecal for 5 days, 30 minutes after administration), the “magnitude of morphine effect with daily drug administration” value was “progressively declined towards baseline value by day 5”. Further, in the test on Sprague-Dawley rats [4] (setting [13]), the “morphine ED50, paw pressure test” value was around 48 µg and the “morphine ED50, tail flick test” value is around 47 µg. For the same molecule, in the test with Sprague-Dawley rats [4] (setting [14]), the “morphine ED50, paw pressure test” value is around 8 µg and the “morphine ED50, tail flick test” value is around 6 µg. In addition, the “acute morphine dose-response curve relative to morphine and atipemazole group” value in the test on Sprague-Dawley rats [4] (morphine 15 μg alone for 10 days, day 11) was “displaced to the right”.
Take `C=CCN1CC[C@]23c4c5ccc(O)c4O[C@H]2C(=O)CC[C@@]3(O)[C@H]1C5` [naloxone]: the “effect on alpha-2 receptor agonist analgesia” value in the test on mouse is recorded as “does not affect”.
Consider `Cc1ccc(N(CC2=NCCN2)c2cccc(O)c2)cc1` [phentolamine], for which the “development of tolerance” value in the test on mice was “suppress the development of tolerance”.
`COc1cc2nc(N3CCN(C(=O)c4ccco4)CC3)nc(N)c2cc1OC` [prazoin]: the “development of tolerance” value with mice is listed as “suppress the development of tolerance”.
As for `CC(C)NCC(O)COc1cccc2ccccc12` (centres unmarked) [propranolol], the “development of tolerance” value with mice is “suppress the development of tolerance”.
